The text below walks through data of patent US8906925B2, “Pyrido[4,3-B]indoles containing rigid moieties” (Medivation Technologies, Inc., priority 2008, dated 2014).

Where two headings read alike, the source gives them in different places.

In test [1] the target is T1, human recombinant histamine H2 receptor (Homo sapiens, UniProt P25021).
T1 construct: expressed in transfected cells; host or cells: Chinese hamster ovary (CHO) K1 cells
The experiment in a line: Histamine H2 radioligand binding ([125I]Aminopotentidine). Conditions: read-out: Histamine Binding (1 μM) H2, percent inhibition of specific binding, 1 μM. Put shortly: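 Receptor source: human recombinant H2 in CHO-K1 cells, assayed in 50 mM phosphate pH 7.4. Competition against 0.1 nM [125I]aminopotentidine, 120 min, 25 °C; 3 μM tiotidine sets nonspecific binding, filter-bound counts give specific binding.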

For test [2], the target named is T2, human recombinant adrenergic α2B receptor (Homo sapiens, UniProt P18089).
T2 construct: expressed in transfected cells; host or cells: Chinese hamster ovary (CHO-K1) cells
T2 sequence (P18089 1-450): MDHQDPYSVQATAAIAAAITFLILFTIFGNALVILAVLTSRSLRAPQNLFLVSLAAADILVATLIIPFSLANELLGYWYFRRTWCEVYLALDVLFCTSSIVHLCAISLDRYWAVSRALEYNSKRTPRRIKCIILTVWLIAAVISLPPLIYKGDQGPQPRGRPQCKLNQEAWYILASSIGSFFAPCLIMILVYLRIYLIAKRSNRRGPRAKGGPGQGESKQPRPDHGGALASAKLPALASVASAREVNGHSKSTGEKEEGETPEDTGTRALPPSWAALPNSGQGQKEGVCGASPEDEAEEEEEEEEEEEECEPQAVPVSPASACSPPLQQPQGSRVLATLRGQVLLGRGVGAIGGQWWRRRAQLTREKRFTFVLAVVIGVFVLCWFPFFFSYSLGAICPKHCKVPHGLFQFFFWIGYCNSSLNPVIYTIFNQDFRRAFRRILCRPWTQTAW
The experiment in a line: Adrenergic α2B radioligand binding ([3H]Rauwolscine). The following applies: compound at 1 μM. The method, then: To evaluate in radioligand binding assays the activity of compounds of the invention, human recombinant adrenergic α2B receptor expressed in Chinese hamster ovary (CHO-K1) cells (Uhlen S et al. Eur J Pharmacol. 343(1):93, 1998) in a modified Tris-HCl buffer (50 mM Tris-HCl, pH 7.4, 12.5 mM MgCl2, 1 mM EDTA, 0.2% BSA) was used. Compounds of the invention were incubated with 2.5 nM [^3H]Rauwolscine for 60 min. at 25° C. Non-specific binding was estimated in the presence of 10 μM Prozosin. Receptor proteins were filtered and washed, the filters were then counted to determine [^3H]Rauwolscine specifically bound. Compounds were screened at 1 μM or lower, using 1% DMSO as vehicle. Biochemical assay results are presented as the percent inhibition of specific binding in Table 9.

The target in test [3] is histamine receptor H1 (Homo sapiens, UniProt P35367). The experiment in a line: Histamine H1 radioligand binding ([3H]Pyrilamine). Conditions: read-out: Histamine Binding (1 μM) H1, percent inhibition of specific binding, 1 μM. Put shortly:
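Values are percent inhibition of specific [3H]pyrilamine (1.2 nM) binding with compounds at ≤1 μM (1% DMSO vehicle); 180 min incubation at 25 °C, pH 7.4 Tris buffer, on CHO-expressed human H1 receptor; 1 μM pyrilamine defined nonspecific binding, bound ligand counted after filtration.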

The target of test [4] is human dopamine D2L receptor (Homo sapiens, UniProt P14416). Kind of test: Dopamine D2L radioligand binding ([3H]Spiperone). The following applies: compound at 1 μM. From the text:
Non-specific binding was estimated in the presence of […] Haloperidol. Receptor proteins were filtered and washed, the filters were then counted to determine [^3H]Spiperone specifically bound. […] Biochemical assay results are presented as the percent inhibition of specific binding in Table 9.

Test [5] has as its target T3, human recombinant adrenergic α2A receptor (Homo sapiens, UniProt P08913).
T3 construct: expressed in transfected cells; host or cells: insect Sf9 cells
T3 sequence (P08913 1-465): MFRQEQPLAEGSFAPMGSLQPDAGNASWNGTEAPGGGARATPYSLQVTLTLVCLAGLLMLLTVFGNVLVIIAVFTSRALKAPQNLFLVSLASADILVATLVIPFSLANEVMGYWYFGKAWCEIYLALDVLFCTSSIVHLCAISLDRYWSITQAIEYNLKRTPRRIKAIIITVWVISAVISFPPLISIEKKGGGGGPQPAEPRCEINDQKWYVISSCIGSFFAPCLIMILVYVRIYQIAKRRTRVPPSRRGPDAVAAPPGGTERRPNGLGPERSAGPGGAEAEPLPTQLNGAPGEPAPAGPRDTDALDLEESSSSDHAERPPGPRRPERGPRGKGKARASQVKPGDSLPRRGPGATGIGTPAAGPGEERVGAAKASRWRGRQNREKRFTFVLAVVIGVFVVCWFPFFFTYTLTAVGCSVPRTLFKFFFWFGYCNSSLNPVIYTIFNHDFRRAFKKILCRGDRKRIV
Kind of test: Adrenergic α2A radioligand binding ([3H]MK-912). Conditions: compound at 1 μM. The procedure: To evaluate in radioligand binding assays the activity of compounds of the invention, human recombinant adrenergic α2A receptor expressed in insect Sf9 cells (Uhlen S et al. J Pharmacol Exp Ther. 271:1558, 1994) in a modified Tris-HCl buffer (50 mM Tris-HCl, pH 7.4, 12.5 mM MgCl2, 2 mM EDTA) was used. Compounds of invention were incubated with 1 nM [^3H]MK-912 for 60 min. at 25° C. MK912 is (2S-trans)-1,3,4,5′,6,6′,7,12b-octahydro-1′,3′-dimethyl-spiro[2H-benzofuro[2,3-a]quinolizine-2,4′(1′H)-pyrimidin]-2′(3′H)-one hydrochloride Non-specific binding was estimated in the presence of 10 μM WB-4101 (2-(2,6-Dimethoxyphenoxyethyl)aminomethyl-1,4-benzodioxane hydrochloride). Receptor proteins were filtered and washed, the filters were then counted to determine [^3H]MK-912 specifically bound. Compounds were screened at 1 μM or lower, using 1% DMSO as vehicle. Biochemical assay results are presented as the percent inhibition of specific binding in Table 9.

The mark [6] stands for this setting: […] [3H]Rauwolscine, read-out: Inhibition of ligand binding, Adrenergic α2B (percent inhibition of specific binding).
[7] abbreviates: […] [3H]Spiperone, read-out: Inhibition of ligand binding, Dopamine D2L (percent inhibition of specific binding).
[8] abbreviates: read-out: Inhibition of ligand binding, Adrenergic α2A (percent inhibition of specific binding).
Where [9] appears, read: percent inhibition of specific binding, read-out: Inhibition of ligand binding, Adrenergic α2B.
Where [10] appears, read: percent inhibition of specific binding, read-out: Inhibition of ligand binding, Adrenergic α2A.
Where [11] appears, read: percent inhibition of specific binding, read-out: Inhibition of ligand binding, Dopamine D2L.

T1 sequence (P25021 whole entry): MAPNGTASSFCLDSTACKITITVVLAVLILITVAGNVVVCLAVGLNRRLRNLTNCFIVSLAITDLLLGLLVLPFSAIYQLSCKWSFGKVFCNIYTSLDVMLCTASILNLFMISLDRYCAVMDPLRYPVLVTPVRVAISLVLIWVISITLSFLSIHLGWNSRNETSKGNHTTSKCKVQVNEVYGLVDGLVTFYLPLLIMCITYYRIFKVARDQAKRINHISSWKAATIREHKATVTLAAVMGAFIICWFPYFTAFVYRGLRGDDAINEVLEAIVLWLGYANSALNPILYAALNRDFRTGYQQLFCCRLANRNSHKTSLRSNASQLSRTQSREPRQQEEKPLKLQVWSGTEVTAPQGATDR
histamine receptor H1, sequence (P35367 whole entry): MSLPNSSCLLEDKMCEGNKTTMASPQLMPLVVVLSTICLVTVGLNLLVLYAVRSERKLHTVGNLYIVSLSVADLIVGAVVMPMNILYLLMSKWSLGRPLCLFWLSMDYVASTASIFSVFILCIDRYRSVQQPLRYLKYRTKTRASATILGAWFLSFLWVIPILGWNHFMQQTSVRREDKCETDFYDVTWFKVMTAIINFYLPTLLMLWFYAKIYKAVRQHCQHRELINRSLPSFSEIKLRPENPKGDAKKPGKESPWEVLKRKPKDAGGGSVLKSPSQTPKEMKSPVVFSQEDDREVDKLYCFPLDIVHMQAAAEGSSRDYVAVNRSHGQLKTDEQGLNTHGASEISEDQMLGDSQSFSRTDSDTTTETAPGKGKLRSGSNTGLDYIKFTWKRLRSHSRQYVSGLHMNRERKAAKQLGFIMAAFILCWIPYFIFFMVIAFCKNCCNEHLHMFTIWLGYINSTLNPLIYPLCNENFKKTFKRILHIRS
human dopamine D2L receptor, sequence (P14416 whole entry): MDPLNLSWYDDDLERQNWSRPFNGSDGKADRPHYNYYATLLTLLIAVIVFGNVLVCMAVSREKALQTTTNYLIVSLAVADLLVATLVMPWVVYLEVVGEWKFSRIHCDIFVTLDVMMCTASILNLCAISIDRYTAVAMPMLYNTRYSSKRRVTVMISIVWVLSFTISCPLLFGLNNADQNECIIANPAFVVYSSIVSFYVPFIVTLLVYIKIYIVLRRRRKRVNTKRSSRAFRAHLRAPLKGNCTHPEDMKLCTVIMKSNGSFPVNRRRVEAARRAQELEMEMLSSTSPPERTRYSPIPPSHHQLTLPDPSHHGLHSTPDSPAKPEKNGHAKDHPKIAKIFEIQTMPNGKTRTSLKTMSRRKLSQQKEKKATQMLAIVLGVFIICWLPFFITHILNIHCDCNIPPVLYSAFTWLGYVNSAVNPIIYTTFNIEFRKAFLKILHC

Consider `Cc1ccc2c(c1)c1c(n2C#Cc2ccc(Cl)cc2)CCN(C)C1` [Compound No. 481, 5-((4-chlorophenyl)ethynyl)-2,8-dimethyl-2,3,4,5-tetrahydro-1H-pyrido[4,3-b]indole], for which the inhibition (in general, the drop in the measured response relative to a control, in per cent) at 1 µM was 97% in test [1]; 98% in test [2] (setting [6]); 12% in test [3]; 24% in test [4] (setting [7]); 99% in test [5] (setting [8]).

Turning to `CN1CCc2c(c3cc(Cl)ccc3n2C#Cc2ccc(Cl)cc2)C1` [Compound No. 480, 8-chloro-5-((4-chlorophenyl)ethynyl)-2-methyl-2,3,4,5-tetrahydro-1H-pyrido[4,3-b]indole], the inhibition at 1 µM is 93% in test [1]; 100% in test [2] (setting [6]); 40% in test [3]; 18% in test [4] (setting [7]); 94% in test [5] (setting [8]).

`CCN1CCc2c(c3cc(C)ccc3n2CC(O)c2ccc(C)cc2)C1` (racemic) [Compound 51, racemic-2-(2-ethyl-1,2,3,4-tetrahydro-8-methylpyrido[4,3-b]indol-5-yl)-1-p-tolylethanol]: the inhibition at 1 µM in test [1] was found to be 59%; in test [2] (setting [9]) it was 118%; in test [3], 100%; in test [5] (setting [10]), 91%.

With `C=C(Cn1c2c(c3cc(Cl)ccc31)CN(C)CC2)c1ccc(OC)c(F)c1` [Compound 140, 8-chloro-5-(2-(3-fluoro-4-methoxyphenyl)allyl)-2,3,4,5-tetrahydro-2-methyl-1H-pyrido[4,3-b]indole], the inhibition at 1 µM in test [1] came to 99%; in test [2] (setting [9]) it was 106%; in test [3], 98%; in test [4] (setting [11]), 57%; in test [5] (setting [10]), 86%.

Consider `Cc1ccc(C(O)Cn2c3c(c4ccccc42)CN(C)CC3)cc1` (racemic) [Compound 53, racemic-2-(1,2,3,4-tetrahydro-2-methylpyrido[4,3-b]indol-5-yl)-1-p-tolylethanol], for which the inhibition at 1 µM in test [1] was found to be 58%; in test [2] (setting [9]), 114%; in test [3] it was 47%; in test [5] (setting [10]) it was 93%.

On to `Cc1ccc2c(c1)c1c(n2CC#Cc2ccccn2)CCN(C)C1` [Compound No. 500, 2,3,4,5-tetrahydro-2,8-dimethyl-5-(3-(pyridin-2-yl)prop-2-ynyl)-1H-pyrido[4,3-b]indole], for which the inhibition at 1 µM is 30% in test [1], 23% in test [2] (setting [6]), 70% in test [3] and 72% in test [5] (setting [8]).

For `Cc1ccc(C(O)Cn2c3c(c4cc(C)ccc42)CN(C)CC3)cc1` (racemic) [Compound 43, racemic-2-(1,2,3,4-tetrahydro-2,8-dimethylpyrido[4,3-b]indol-5-yl)-1-p-tolylethanol], the “Inhibition of ligand binding, Adrenergic α2B” value in test [2] (percent inhibition of specific binding, 1 µM) worked out at 102%. Further, the inhibition at 1 µM was determined as 108% in test [2] (setting [9]), 81% in test [3], 65% in test [4] (setting [11]) and 98% in test [5] (setting [10]).

Consider `CCN1CCc2c(c3ccccc3n2CC(O)c2ccc(C)cc2)C1` (racemic) [Compound 44, racemic-2-(2-ethyl-1,2,3,4-tetrahydropyrido[4,3-b]indol-5-yl)-1-p-tolylethanol], for which the inhibition at 1 µM in test [1] was 26%; in test [2] (setting [9]) it was 94%; in test [3], 54%; in test [5] (setting [10]), 65%.

Turning to `C/C(=C\n1c2c(c3cc(C)ccc31)CN(C)CC2)c1ccncc1` [Compound 88, (E)-2,3,4,5-tetrahydro-2,8-dimethyl-5-(2-(pyridin-4-yl)prop-1-enyl)-1H-pyrido[4,3-b]indole], the inhibition at 1 µM in test [1] is 30%; in test [2] (setting [9]), 107%; in test [5] (setting [10]) it was 65%.
